According to patent publication US7981939B2, “Application of 2-bromide-isovanillin for the manufacture of a medicament for anti-cancer or/and radiation/chemotherapy sensitization” (Institute of Radiation Medicine, Academy of Military …, priority 2005, dated 2011):

Legend:
[1] = system: human cervical cancer cell line HeLa; experiment: MTT assay, proliferation of HeLa cells; type: cell-based; details: for effect on the proliferation of HeLa cells: concentrations of less than 40 μmol/L, up to 72 hrs
Protocol: Human cervical cancer cell line HeLa, human liver cancer cell line HepG2/7221/7402, human ovarian cancer cell line HOC8/A2780, human glioma cell line BT325, lung cancer cell line A549, brain metastatic lung cancer cell line BT72 and normal human hepatic cell line LO2 were all grown in DMEM liquid medium supplemented with 10% newborn calf serum. Human leukemia cell line Jurkat was grown in 1640 medium supplemented with 10% newborn calf serum. The above cell lines were cultured in a CO2 incubator at 5% CO2 at 37° C.
By way of example, human cervical cancer cell line HeLa was used to study the effect of vanillin on the proliferation of cancer cells by MTT assay. Specifically, human cervical cancer cells HeLa were seeded into a 96-well plate at a density of 5×10^3 cells/well, and were divided into four groups. To each of the groups vanillin was added at a concentration of 0, 100, 250 or 500 μmol/L, respectively, and was allowed to grow for 4 days. Using the MTT assay, the optical density (OD) values at 490 nm were measured and recorded every day, wherein the OD value is indicative of the number of cells, i.e., the proliferation of cells.
By way of example, human cervical cancer cell line HeLa was used to study the effect of several vanillin derivatives for 72 hrs on the proliferation of cancer cells by MTT assay. Specifically, human cervical cancer cells HeLa were seeded into a 96-well plate at a density of 5×10^3 cells/well, and were divided into four groups. To each of the groups were added increasing concentrations (0, 10, 20, 30, 40 μmol/L) of vanillin derivatives ethyl vanillin (Code No. VAND3206), 4-methoxy vanillin (Code No. VAND3207), isovanillin (Code No. VAND3209) and 2-bromo-isovanillin (Code No. VAND3208), and the cells were cultured for 72 hrs. Using the MTT assay, the optical density (OD) values at 490 nm were measured and recorded every day, wherein the OD value is indicative of the number of cells, i.e., the proliferation of cells.
By way of example, human cervical cancer cell line HeLa was used to study the inhibitory effect of 2-bromo-isovanillin at different concentrations for different periods of time on the proliferation of cancer cells by MTT assay. Specifically, human cervical cancer cells HeLa were seeded into a 96-well plate at a density of 5×10^3 cells/well, and were divided into […]. To each of the groups 2-bromo-isovanillin was added at a concentration of 0, 10, 20, 30, 40 or 50 μmol/L, and was cultured for 14 days, respectively. Using the MTT assay, the optical density (OD) values at 490 nm were measured and recorded every day, wherein the OD value is indicative of the number of cells, i.e., the proliferation of cells.

[2] = molecular target: T1, nuclear protein DNA-PKcs serine/threonine protein kinase (Homo sapiens, UniProt P78527); experiment: DNA-PKcs kinase activity in nuclear protein of treated HepG2 cells; type: cell-based; details: HepG2, 100 μmol/L, 24 hrs
T1 construct: adding nuclear proteins to the solid phase reaction system; endogenous in cells; host or cells: HepG2 human liver cancer cells (nuclear protein extract)
Protocol: The activity of nuclear protein DNA-PKcs serine/threonine protein kinase in human liver cancer cells HepG2 treated with 0, 10, 20, 40, 100 μmol/L 2-bromo-isovanillin for 24 hrs was determined by using […] DNA dependent protein kinase assay kit (Promega), according to the manufacturer's instructions, and the treatment with 100 μmol/L vanillin for the same period of time served as control. Basically, the assay was carried out by immobilizing the phosphorylation substrate specific to DNA-PKcs, i.e., a peptide derived from p53 protein onto a cellulose membrane, adding nuclear proteins to the solid phase reaction system, isotopically labeling the substrate by phosphorylation using γ-^32P ATP, removing non-specific signals after the isotope labeling, and visualizing the kinase activity upon X-ray film developing.

| inhibitory effect on DNA-PKcs kinase activity compared with 2-bromo-isovanillin [2] | SMILES | effect on the proliferation of HeLa cells [1] | concentration at which proliferation of cancer cells was effectively inhibited ([1]; HeLa, 0-500 μmol/L, 4 days, OD at 490 nm) |
| --- | --- | --- | --- |
| – | COc1ccc(C=O)cc1O [VAND3209, isovanillin] | no inhibitory effect | – |
| – | CCOc1cc(C=O)ccc1O [ethyl vanillin] | no inhibitory effect | – |
| significantly weaker | COc1cc(C=O)ccc1O [vanillin] | – | above 250 μmol/L |
